# Source: patent US9114159B2, “Transcription factors in neuronal dendrites-dendritic protein synthesis and cell death” (The Trustees of the University of Pennsylvania, priority 2005, dated 2015)
# Entries after “also recorded” stand apart in the source; their conditions may differ. Like-named read-outs stand apart in the source and are kept apart here. *1 amine or outer side, *2 acyl side, *3 side chain or, on linkers, in order; H or OH if unused. Where a SMILES comes first, the peptide text is derived from it. Bridges are numbered along the chain shown (N, C = ends). Roman numbers before positions name the chains, in order. [ ]: non-standard residue; d: D form. Actinocin(9to1) = Cc1c2oc3c(C)ccc(C(=O)[*:1])c3nc-2c(C(=O)[*:2])c(N)c1=O; NMeV = CN[C@H](C(=O)O)C(C)C; Sar = CNCC(=O)O
# How the values were obtained:
# [1] = tested on: primary rat hippocampal neurons; assay: Elk-1 immunocytochemistry after mGluR stimulation; format: cell-based; conditions: 30-minute application, 50 μM, n=7
# Source text: Immunocytochemistry/immunohistochemistry: Three polyclonal antibodies raised against Elk-1 (Santa Cruz Biotechnology, Santa Cruz, Calif.; Cell Signaling Technology, Beverly, Mass.) were used to detect Elk-1 protein in primary rat hippocampal cultures and in adult rat brain sections. A monoclonal antibody raised against a synthetic phospho-peptide of Elk-1 was used to detect Elk-1 protein phosphorylated at S383 (Cell Signaling Technology). […] For stimulation experiments, cultured neurons were placed in warm Hals buffer (pH=7.4) and treated with the Group I mGluR agonist, dihydrophenylglycine (DHPG; Tocris Cookson Inc., Ellisville, Mo.) at a final concentration of 50 μM for 30 minutes at 37° C. prior to fixation and immunocytochemistry.
# [2] = tested on: primary rat hippocampal neurons; assay: DAPI and Hoechst nuclear stains for pycnotic nuclei; format: cell-based; conditions: cells treated for 3 hours with 30 μM
# Experimental: FIG. 5A is a graph depicting cell counts after Elk-1 over-expression. Neurons electroporated with Elk-1 in a pcDNA vector were stained with a MAP2 antibody at 48, 72, 96 and 168 hours after plating. Two 5× images of MAP2 immunoreactive neurons were taken for each experiment, and MAP2 positive neurons were counted manually. Shown are the percent decreases in MAP2 positive neurons compared to control. (Line=best fit) FIG. 5B are images of MAP2 immunoreactivity from neurons electroporated with a control pcDNA vector (right image) or with Elk-1 in pcDNA (left image). FIG. […] Scale bar=20 μm.
# In order to assess whether neurons were dying via apoptosis or necrosis following Elk-1 over-expression, DAPI and Hoechst nuclear stains were used to look for evidence of pycnotic nuclei, characteristic of an apoptotic phenotype.
# [3] = tested on: primary rat corticol neurons; assay: Elk-1 association with mitochondria, Western blotting of mitochondrial fractions; format: cell-based; conditions: Western blotting after drug application
# Experimental: Mitochondrial fractionation for western blots: A mitochondrial isolation kit (Pierce) was used according to the manufacturer's instructions to isolate mitochondria from primary neuronal cultures. Once isolated, mitochondria were lysed in buffer containing: 150 mM NaCl, 1% NP-40, 0.5% Deoxycholic acid, 0.1% SDS, 50 mM Tris, 10 ug/mL Aprotinin, 5 ug/mL Leupeptin, 1 mM sodium orthovanidate, 1 mM PMSF and 100 ug/mL TPCK. Lysate was then used for western blotting with the following antibodies: Elk-1 (Cell Signaling Technology), VDAC 1 (Santa Cruz Biotechnology), NeuN (Abcam).
# To examine whether specific cellular insults could increase or decrease the association between Elk-1 and mitochondria, primary rat corticol neurons were exposed to a variety of compounds known to induce cell death in neurons, and mitochondrial fractions were then isolated and used for Western blotting.
# [4] = tested on: primary rat hippocampal neurons; conditions: for effect on Elk-1 induced cell death: Elk-1 GFP mRNA photoporated into dendrites
# Experimental: Cultured primary rat hippocampal neurons were bathed in 10-15 μg capped mRNA in 1 ml extracellular saline at 37° C. In some cases, neurons were pre-incubated with the translation inhibitor, anisomycin (5 μM), the mitochondrial PTP inhibitor, bongkrekic (BKA; 25 μM), or the transcriptional inhibitor, actinomycin D (1 μg/ml).
# Samples were imaged and photoporated using a Prairie Ultima multiphoton scan head attached to an Olympus BX61 fixed-stage upright microscope equipped with a 40× water immersion lens (LUMPlanFI/IR, N.A. 0.8). 8 to 16 points were selected over a 2 μm×2 μm area for photoporation. A Ti-sapphire laser (Mai-Tai®, Spectral-Physics, Mountain View, Calif.) was used to make transient poration sites for 5 milliseconds at 30 mW (at back aperture of lens) energy. After photoporation, samples were transferred to an Olympus IX81 inverted microscope for simultaneous GFP fluorescence and DIC imaging. All images were processed with Metamorph (Universal Imaging Corporation) image processing software. For cell death assays, a LIVE/DEAD cell viability/cytotoxicity kit (Molecular Probes) was used according to the manufacturer's instructions.
# A cell viability/cytotoxicity assay (Invitrogen Molecular Probes, Carlsbad, Calif.) was used to confirm the morphological observations of cell death following Elk-1 GFP mRNA photoporation. […] Obvious morphological signs of cell death may take hours to become apparent, whereas the use of a nuclear dye allows rapid identification of neurons that are in the process of dying.
smiles,measurement,setting,value
"N[C@H](C(=O)O)c1cc(O)cc(O)c1 [DHPG, dihydrophenylglycine]",Elk-1 immunoreactivity in both cell somas and dendrites,[1],substantial increase
CC[C@@]1(O)C(=O)OCc2c1cc1n(c2=O)Cc2cc3ccccc3nc2-1 [camptothecin],pycnotic nuclei,[2],presence of pycnotic nuclei
same,Elk-1 association with mitochondria,[3],increased its association with mitochondria
COc1ccc(C[C@H]2NC[C@H](O)[C@H]2OC(C)=O)cc1 [anisomycin],effect on Elk-1-induced cell death,"[4]; pre-incubation with translational inhibitor 5 μM, Elk-1 GFP mRNA photoporated",blocked; also recorded: absence of cell death
"CO[C@H](C/C=C\C=C\CC/C=C/C[C@H](C)/C=C/C(=C\C(=O)O)CC(=O)O)/C(C)=C\C=C(/C)C(=O)O [BKA, bongkrekic acid]",effect on Elk-1 induced cell death,"[4]; pre-incubation with mitochondrial PTP inhibitor 25 μM, n=10",blocked; also recorded: cells did not die
"Cc1c2oc3c(C)ccc(C(=O)N[C@@H]4C(=O)N[C@H](C(C)C)C(=O)N5CCC[C@H]5C(=O)N(C)CC(=O)N(C)[C@@H](C(C)C)C(=O)O[C@@H]4C)c3nc-2c(C(=O)N[C@@H]2C(=O)N[C@H](C(C)C)C(=O)N3CCC[C@H]3C(=O)N(C)CC(=O)N(C)[C@@H](C(C)C)C(=O)O[C@@H]2C)c(N)c1=O [actinomycin D] (I: T[dV]P[Sar][NMeV] / II: T[dV]P[Sar][NMeV]; ester I:1-I:C, II:1-II:C; linker I:N-II:N via Actinocin(9to1))",effect on Elk-1 induced cell death,"[4]; pre-incubation with transcriptional inhibitor 1 μg/ml, n=7",inhibited
